In PubChem BioAssay (NCI):
“And” between values parts separate entries of the source, which are not always exact repeats. Equal entries are not always repeated.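 These data come from cells grown in 96-well plates and exposed to compound for 48 hours at five concentrations. Abbreviation: GI50, concentration required for 50% inhibition of growth. TGI denotes the concentration required for complete inhibition of growth.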

Columns and labels:
Test in all cases: DTP human tumour cell line panel, 48 h
ACHN renal = system: ACHN renal
COLO 205 colon = system: COLO 205 colon
LOX IMVI melanoma = system: LOX IMVI melanoma
MOLT-4 leukemia = system: MOLT-4 leukemia
OVCAR-3 ovarian = system: OVCAR-3 ovarian
OVCAR-4 ovarian = system: OVCAR-4 ovarian
OVCAR-5 ovarian = system: OVCAR-5 ovarian
RPMI-8226 leukemia = system: RPMI-8226 leukemia
SF-295 CNS = system: SF-295 CNS
SK-MEL-28 melanoma = system: SK-MEL-28 melanoma

SMILES | GI50 (ACHN renal) | TGI (ACHN renal) | GI50 (COLO 205 colon) | TGI (COLO 205 colon) | GI50 (LOX IMVI melanoma) | TGI (LOX IMVI melanoma) | GI50 (MOLT-4 leukemia) | TGI (MOLT-4 leukemia) | GI50 (OVCAR-3 ovarian) | TGI (OVCAR-3 ovarian) | GI50 (OVCAR-4 ovarian) | TGI (OVCAR-4 ovarian) | TGI (OVCAR-5 ovarian) | GI50 (RPMI-8226 leukemia) | TGI (RPMI-8226 leukemia) | GI50 (SF-295 CNS) | TGI (SF-295 CNS) | GI50 (SK-MEL-28 melanoma) | TGI (SK-MEL-28 melanoma) | GI50 (OVCAR-5 ovarian)
O=C(c1nn(-c2ccc(Cl)cc2)cc1O)n1nc(C(F)(F)F)cc1-c1ccccc1 | 2.08 µM | > 100 µM | 2.97 µM | > 44.2 µM | 1.88 µM | > 100 µM | 2.55 µM | > 100 µM | 2.25 µM | > 100 µM | 2.43 µM | > 100 µM | > 85 µM | 1.91 µM | > 85.3 µM | 0.478 µM | > 65.6 µM | 6.56 µM | > 100 µM | 
O=C(Nc1ccc(Nc2ccncc2)cc1)c1ccc(Nc2ccnc3ccc([N+](=O)[O-])cc23)cc1[N+](=O)[O-] | 15.5 µM | 37.2 µM | 17.5 µM | > 100 µM | 4.82 µM | > 51 µM | 43.9 µM | > 100 µM | 24.7 µM | > 89.5 µM | 6.01 µM | > 79.1 µM | > 88.4 µM | 12.6 µM | 55.3 µM | 6.69 µM | 98.3 µM | 5.26 µM | > 46.1 µM | 38 µM
OCCn1cc(-c2cnc3nnn(Cc4ccc5ncccc5c4)c3n2)cn1 | > 100 µM | > 100 µM | > 100 µM | > 100 µM | > 100 µM | > 100 µM | > 100 µM | > 100 µM | > 100 µM | > 100 µM | > 100 µM | > 100 µM | > 100 µM | > 100 µM | > 100 µM |  | > 100 µM | > 100 µM | > 100 µM | > 100 µM
CC(O)C(NC(=O)c1ccccc1)C(=O)N(Cc1ccccc1)Cc1ccccc1 (stereo not drawn) |  | > 100 µM |  | > 100 µM |  | > 100 µM |  | > 100 µM |  | > 100 µM |  | > 100 µM | > 100 µM |  | > 100 µM |  | > 100 µM |  | > 100 µM | 
Fc1cccc(Cl)c1Cn1c(-c2c(F)cccc2Cl)nc2ccccc21 | 18.9 µM | 41.4 µM | 17.5 µM | > 100 µM | 20.5 µM | 42.2 µM | 11.1 µM | > 100 µM | 17.4 µM | 60.2 µM | 23.6 µM | 58.3 µM | 95.8 µM | 13.3 µM | 60 µM | 16.8 µM | 46.8 µM | 20.4 µM | 46.2 µM | 24.9 µM
O=C1/C(=C/c2ccc(Cl)cc2)CCC1CN1CCOCC1 (stereo not drawn) |  | 24.8 µM |  | > 25.3 µM |  | 5.24 µM |  | 4.21 µM |  | 15 µM |  | 34.1 µM | 45.7 µM |  | > 28.3 µM |  | 38.1 µM |  | 21.5 µM | 
CCOC(=O)c1ccc(N(C=O)CCC(=O)CCl)cc1 | 0.432 µM | 1.81 µM | 0.315 µM | 0.838 µM | 0.0586 µM | 1.31 µM | 0.0433 µM | 3.88 µM | 0.399 µM | 1.35 µM | 0.079 µM | 3.61 µM | 9.23 µM | 0.13 µM | 2.83 µM | 1.2 µM | 13 µM | 1.74 µM | 15.2 µM | 0.474 µM
COc1cc(-c2nc(-c3ccc(-c4nc5ccc(F)cc5[nH]4)cc3)no2)cc(OC)c1OC | 3.72 µM | 13.6 µM | 4.77 µM | 17 µM | 1.65 µM | 3.73 µM | 1.99 µM | 5.44 µM | 2.56 µM | 5.83 µM | 2.82 µM | 11.3 µM | 34.5 µM | 1.94 µM | 5.35 µM | 2.31 µM | 7.02 µM | 3.78 µM | 16 µM | 5.59 µM
CCCCCCCCNC(C)C(O)c1ccc(SC(C)C)cc1 (stereo not drawn) | 1.87 µM | 3.3 µM | 1.62 µM | 3 µM | 1.54 µM | 2.92 µM | 2.48 µM | 5.27 µM | 1.98 µM | 3.46 µM | 1.79 µM | 3.25 µM | 3.23 µM | 2.06 µM | 4.91 µM | 1.68 µM | 3.2 µM | 1.83 µM | 3.27 µM | 1.76 µM
O=C1CCSC(=S)N1c1ccc(Br)c(Cl)c1 |  | 38.9 µM |  | 41.2 µM |  | 50.4 µM |  | > 100 µM |  | > 100 µM |  | 50.3 µM | > 100 µM |  | > 100 µM |  | 73.1 µM |  | 34.9 µM | 
Cc1cccc(C(C)C)c1NC(=O)CCl |  | > 100 µM |  | > 100 µM |  | > 100 µM |  | > 100 µM |  | 59.9 µM |  | 76.6 µM | > 100 µM |  | > 100 µM |  | > 100 µM |  | > 100 µM | 
COc1ccc(C2=N[C@@H](c3ccc(Cl)cc3)[C@@H](c3ccc(Cl)cc3)N2C(=O)N2CCNC(=O)C2)c(OC(C)C)c1 | 14.6 µM and 3.61 µM and 3.8 µM | 29.4 µM and 15.1 µM and 16.1 µM | 15 µM and 16.6 µM and 15.8 µM | 29.4 µM and 34.6 µM and 32.2 µM | 13.8 µM and 4.07 µM and 2.81 µM | 27.4 µM and 19.3 µM and 18.3 µM | 7.54 µM and 3.5 µM and 2.74 µM | 28.4 µM and > 36.2 µM and 17.2 µM | 14 µM and 13.1 µM and 13.7 µM | 27.2 µM and 26 µM and 26.8 µM | 12.1 µM and 12.5 µM and 13.7 µM | 24.9 µM and 26 µM and 31.5 µM | 34 µM and 32.2 µM and 34.1 µM | 14.6 µM and 16.6 µM and 16.4 µM | > 63.7 µM and 62.7 µM and 56.8 µM | 12.6 µM and 12.9 µM and 14.9 µM | 27.3 µM and 26.8 µM and 30.4 µM | 15.8 µM and 15.3 µM and 16.5 µM | 30.8 µM and 29.6 µM and 32.2 µM | 17.1 µM and 16.3 µM and 17.3 µM
CCCC(C)c1c(Cl)nc(Cl)nc1Cl (stereo not drawn) |  | 15.5 µM |  | 15.8 µM |  | > 100 µM |  | > 100 µM |  | 21.3 µM |  | 44.7 µM | 39 µM |  | > 100 µM |  | 37 µM |  | 13.4 µM | 
COc1ccc(-n2cc(-c3cc(OC)c(OC)c(OC)c3)[nH]c2=S)cc1Cl | 44.3 µM | > 100 µM | 70.8 µM | > 100 µM | 6.12 µM | > 100 µM | > 100 µM | > 100 µM | 26.1 µM | > 100 µM | 27.2 µM | > 100 µM | > 100 µM | 5.14 µM | > 100 µM | 43 µM | > 100 µM | 63 µM | > 100 µM | 28.3 µM
